Test results reported in PubChem BioAssay AID2005 (Sanford-Burnham Center for Chemical Genomics, 2009).
Active and inactive are the calls of the source.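 How the source made its calls: active means plate Z score at or below -3, or inhibition of at least 30% at 20 µM; inactive means the rest.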

Assay: EGFP reporter destabilization counter-screen – F442A EGFP cells, fluorescence, counter-screen for p/CIP destabilizer project, dose response (AID 2005);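 further: cells express EGFP alone from a CMV promoter as a counter screen for p/CIP-EGFP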
Details: F442A EGFP cells, EGFP fluorescence, 16 h, stronger effect = higher value

Structure (SMILES) | inhibition (EGFP decrease, at 10 µM) [%] | inhibition (at 20 µM)
O=C(CN(CCc1ccccc1)C(=O)CNS(=O)(=O)c1ccccc1)NCC1CCCO1 (stereo unspecified) | 25.6 | 23.8% (inactive)
Cc1ccc(/C=C/C(=O)c2ccc(N3CCOCC3)cc2)s1 | 8.3 | -1.4% (inactive)
COC(=O)c1ccc(NC(=O)CCCCCn2nnc3ccccc3c2=O)cc1 | 5.4 | -4% (inactive)
O=C(O)c1ccc(NC2=C/C(=N/S(=O)(=O)c3ccccc3)c3ccccc3C2=O)cc1 | 38.1 | 41.2%
Cc1onc(-c2ccccc2Cl)c1C(=O)NCc1cccnc1 | 22.1 | 15.9% (inactive)
O=C(CN1CCC(n2nnc3cc(F)ccc32)CC1)NC1CC1 | -7.1 | -1.4% (inactive)
COc1ccccc1C(=O)NC(CCSC)C(=O)NC1CCCCCC1 (stereo unspecified) | 17.2 | 29.7% (inactive)
Cc1onc(-c2ccccc2)c1C(=O)OCC(=O)Nc1cc(S(=O)(=O)N2CCOCC2)ccc1Cl | 13.9 | 19.6% (inactive)
Cc1ccc(S(=O)(=O)N(C)c2ccc(C(=O)NCc3cccnc3)cc2)cc1 | -13.7 | -8.4% (inactive)
O=C(CCCn1c(=O)c2cccn2c2cccnc21)NCc1cccc(Br)c1 | -13.6 | 2.1% (inactive)
Nc1ccc2nc(-c3ccc(-c4nc5ccc(N)cc5[nH]4)cc3)[nH]c2c1 | 15.4 | 25% (inactive)
CCC1CCCCN1C(=O)NC(=O)c1ccccc1 (stereo unspecified) | 14.3 | 5.4% (inactive)
N#C/C(=C\c1cccnc1)C(=O)Nc1ccccc1[N+](=O)[O-] | 27.7 | 2% (inactive)
O=C(N/N=C/c1cccc(O)c1)c1ccc(COc2cccc3cccnc23)cc1 | 2.4 | 7.8% (inactive)
O=C1C2C3C=CC(C2C(=O)N1c1cccc(O)c1)C1C2C(=O)N(c4cccc(O)c4)C(=O)C2C31 (stereo unspecified) | -3 | 12.3% (inactive)
CCOC(=O)CSC1=Nc2ccccc2C2=NC(CC(=O)NCc3ccc4c(c3)OCO4)C(=O)N12 (stereo unspecified) | -26.1 | 3.9% (inactive)
O=C(NCc1ccc(Cl)cc1)C1CCN(S(=O)(=O)c2cccs2)CC1 | 6 | 6.7% (inactive)
CCOc1ccccc1N1CCN(C(=O)c2cc(-c3cc(OC)ccc3OC)nc3ccccc23)CC1 | 20.9 | 24.9% (inactive)
COc1ccc(OC)c(Nc2cc(C)c3ccccc3n2)c1 | 13.3 | 5.4% (inactive)

Structure (SMILES) | inhibition (EGFP decrease, at 10 µM) [%] | inhibition (at 20 µM)
O=C(c1ccc(F)cc1)C1CCN(C(=O)c2c(F)cccc2F)CC1 | 12.9 | 13.5% (inactive)
COc1ccc(OC)c(NS(=O)(=O)c2c(C(=O)N3CCCCCC3)c(C)n(C)c2C)c1 | 32.8 | 15.9% (inactive)
Cc1c(NC(=O)C(C)OC(=O)/C=C/c2ccco2)c(=O)n(-c2ccccc2)n1C (stereo unspecified) | 10.9 | -5.3% (inactive)
Cc1nnc(NC(=O)CSc2nccn2Cc2ccc(F)cc2)s1 | 22.4 | 16.3% (inactive)
CC(C)c1csc(CN2CCCC(CNC(=O)c3cccc4ccccc34)C2)n1 (stereo unspecified) | 15 | 4.5% (inactive)
N#Cc1cc(F)c(N2CCNCC2)cc1Cl | 13.5 | 6.7% (inactive)
Cc1cccc(N(CC(=O)NCCc2ccccc2)C(=O)c2csnn2)c1 | 4.8 | 17.2% (inactive)
COc1ccc(NC(=O)N2CCn3c2nc2ccccc23)cc1 | 17.9 | 30.9%
Cc1cc(C(=O)Nc2cccc(C)c2C)n(-c2ccccc2)n1 | -4.4 | 5.5% (inactive)
Cc1c(NC(=O)CSc2ncccn2)c(=O)n(-c2ccccc2)n1C | 15.5 | 17.7% (inactive)
Cc1ccc(C2C(C#N)=C(N)Oc3cc4c(cc32)OCO4)cc1 (stereo unspecified) | 15.9 | 18.9% (inactive)
Nc1cnn(C2OC(CO)C(O)C2O)c(=O)n1 (stereo unspecified) | 18.6 | 22.1% (inactive)
Cc1cc2c(c(Sc3ccccc3)n1)C(=O)OC2 | -4 | -3.5% (inactive)
COC(=O)c1cc(NC(=O)CSc2nc(C)cc(=O)[nH]2)cc(C(=O)OC)c1 | 9.8 | 23.4% (inactive)
COc1ccc(S(=O)(=O)N2CCOC2CNC(=O)C(=O)NCc2ccncc2)cc1 (stereo unspecified) | -30.4 | 8.6% (inactive)
CC(=O)N1[C@H](Cc2ccccc2)C=C[C@]1(C)C(=O)NCc1ccccn1 | -7.6 | 8.7% (inactive)
COC(=O)CSc1[nH]c(=O)cc(C)c1C#N | 26.6 | 49.5%
O=[N+]([O-])c1ccc(-c2nnc(CNC3CCCC3)o2)cc1 | 17.3 | 25.1% (inactive)
O=C(Nc1ccc(N2CCOCC2)cc1N1CCOCC1)c1ccc(Br)cc1 | 32.7 | 19.4% (inactive)
